ChEMBL document CHEMBL6127116, “Discovery of Potent and Selective Blockers Targeting the Epilepsy-Associated KNa1.1 Channel” (J Med Chem, 2024)

How the values were obtained:
HEK293 = assay: Cytotoxicity against HEK293 cells assessed as reduction in cell viability at 10 uM by CCK8 method relative to control; format: toxicity, cell-based; settings: human, hek293, 10 µM
[1] = Inhibition of KNa 1.1 (unknown origin); design: species or system Homo sapiens
[2] = Cmax in male ICR mouse at 1 mg/kg, iv administered as single dose measured upto 24 hrs by HPLC analysis; format: ADME, organism-based; settings: in vivo
[3] = Tmax in male ICR mouse at 1 mg/kg, iv administered as single dose measured upto 24 hrs by HPLC analysis; format: ADME, organism-based; settings: in vivo
[4] = Half life in male ICR mouse at 1 mg/kg, iv administered as single dose measured upto 24 hrs by HPLC analysis; format: ADME, organism-based; settings: in vivo
[5] = AUC (0 to t) in male ICR mouse at 1 mg/kg, iv administered as single dose measured upto 24 hrs by HPLC analysis; format: ADME, organism-based; settings: in vivo
[6] = Clearance in male ICR mouse at 1 mg/kg, iv administered as single dose measured upto 24 hrs by HPLC analysis; format: ADME, organism-based; settings: in vivo
[7] = MRT (0 to t) in male ICR mouse at 1 mg/kg, iv administered as single dose measured upto 24 hrs by HPLC analysis; format: ADME, organism-based; settings: in vivo
[8] = Volume of distribution at steady state in male ICR mouse at 1 mg/kg, iv administered as single dose measured upto 24 hrs by HPLC analysis; format: ADME, organism-based; settings: in vivo, read-out: Vdss
[9] = Cmax in male ICR mouse at 10 mg/kg, po administered as single dose measured upto 24 hrs by HPLC analysis; format: ADME, organism-based; settings: in vivo
[10] = Tmax in male ICR mouse at 10 mg/kg, po administered as single dose measured upto 24 hrs by HPLC analysis; format: ADME, organism-based; settings: in vivo
[11] = Half life in male ICR mouse at 10 mg/kg, po administered as single dose measured upto 24 hrs by HPLC analysis; format: ADME, organism-based; settings: in vivo
[12] = AUC (0 to t) in male ICR mouse at 10 mg/kg, po administered as single dose measured upto 24 hrs by HPLC analysis; format: ADME, organism-based; settings: in vivo
[13] = MRT (0 to t) in male ICR mouse at 10 mg/kg, po administered as single dose measured upto 24 hrs by HPLC analysis; format: ADME, organism-based; settings: in vivo
[14] = Oral bioavailability in male ICR mouse at 10 mg/kg administered as single dose measured upto 24 hrs by HPLC analysis; format: ADME, organism-based; settings: in vivo
[15] = Drug concentration in male ICR mouse brain at 1 mg/kg, iv measured after 0.5 hrs by LC-MS/MS analysis; format: ADME, organism-based; settings: read-out: Ct
[16] = Drug concentration in male ICR mouse plasma at 1 mg/kg, iv measured after 0.5 hrs by LC-MS/MS analysis; format: ADME, organism-based
[17] = Drug concentration in male ICR mouse brain at 1 mg/kg, iv measured after 2 hrs by LC-MS/MS analysis; format: ADME, organism-based; settings: read-out: Ct
[18] = Drug concentration in male ICR mouse plasma at 1 mg/kg, iv measured after 2 hrs by LC-MS/MS analysis; format: ADME, organism-based
[19] = Drug concentration in male ICR mouse brain at 10 mg/kg, po measured after 0.5 hrs by LC-MS/MS analysis; format: ADME, organism-based; settings: read-out: Ct
[20] = Drug concentration in male ICR mouse plasma at 10 mg/kg, po measured after 0.5 hrs by LC-MS/MS analysis; format: ADME, organism-based
[21] = Drug concentration in male ICR mouse brain at 10 mg/kg, po measured after 2 hrs by LC-MS/MS analysis; format: ADME, organism-based; settings: read-out: Ct
[22] = Drug concentration in male ICR mouse plasma at 10 mg/kg, po measured after 2 hrs by LC-MS/MS analysis; format: ADME, organism-based
[23] = target: Voltage-gated inwardly rectifying potassium channel KCNH2 (Homo sapiens, UniProt Q12809); assay: Inhibition of human ERG expressed in Xenopus laevis oocytes by two-electrode voltage clamp method; format: toxicity, cell-based, Oocyte
[24] = target: Sodium channel protein type 5 subunit alpha (Homo sapiens, UniProt Q14524); assay: Inhibition of Nav1.5 (unknown origin) expressed in HEK293T cells at 10 uM by patch-clamp electrophysiology method; format: cell-based
Sodium channel protein type 5 subunit alpha, sequence (Q14524 whole entry): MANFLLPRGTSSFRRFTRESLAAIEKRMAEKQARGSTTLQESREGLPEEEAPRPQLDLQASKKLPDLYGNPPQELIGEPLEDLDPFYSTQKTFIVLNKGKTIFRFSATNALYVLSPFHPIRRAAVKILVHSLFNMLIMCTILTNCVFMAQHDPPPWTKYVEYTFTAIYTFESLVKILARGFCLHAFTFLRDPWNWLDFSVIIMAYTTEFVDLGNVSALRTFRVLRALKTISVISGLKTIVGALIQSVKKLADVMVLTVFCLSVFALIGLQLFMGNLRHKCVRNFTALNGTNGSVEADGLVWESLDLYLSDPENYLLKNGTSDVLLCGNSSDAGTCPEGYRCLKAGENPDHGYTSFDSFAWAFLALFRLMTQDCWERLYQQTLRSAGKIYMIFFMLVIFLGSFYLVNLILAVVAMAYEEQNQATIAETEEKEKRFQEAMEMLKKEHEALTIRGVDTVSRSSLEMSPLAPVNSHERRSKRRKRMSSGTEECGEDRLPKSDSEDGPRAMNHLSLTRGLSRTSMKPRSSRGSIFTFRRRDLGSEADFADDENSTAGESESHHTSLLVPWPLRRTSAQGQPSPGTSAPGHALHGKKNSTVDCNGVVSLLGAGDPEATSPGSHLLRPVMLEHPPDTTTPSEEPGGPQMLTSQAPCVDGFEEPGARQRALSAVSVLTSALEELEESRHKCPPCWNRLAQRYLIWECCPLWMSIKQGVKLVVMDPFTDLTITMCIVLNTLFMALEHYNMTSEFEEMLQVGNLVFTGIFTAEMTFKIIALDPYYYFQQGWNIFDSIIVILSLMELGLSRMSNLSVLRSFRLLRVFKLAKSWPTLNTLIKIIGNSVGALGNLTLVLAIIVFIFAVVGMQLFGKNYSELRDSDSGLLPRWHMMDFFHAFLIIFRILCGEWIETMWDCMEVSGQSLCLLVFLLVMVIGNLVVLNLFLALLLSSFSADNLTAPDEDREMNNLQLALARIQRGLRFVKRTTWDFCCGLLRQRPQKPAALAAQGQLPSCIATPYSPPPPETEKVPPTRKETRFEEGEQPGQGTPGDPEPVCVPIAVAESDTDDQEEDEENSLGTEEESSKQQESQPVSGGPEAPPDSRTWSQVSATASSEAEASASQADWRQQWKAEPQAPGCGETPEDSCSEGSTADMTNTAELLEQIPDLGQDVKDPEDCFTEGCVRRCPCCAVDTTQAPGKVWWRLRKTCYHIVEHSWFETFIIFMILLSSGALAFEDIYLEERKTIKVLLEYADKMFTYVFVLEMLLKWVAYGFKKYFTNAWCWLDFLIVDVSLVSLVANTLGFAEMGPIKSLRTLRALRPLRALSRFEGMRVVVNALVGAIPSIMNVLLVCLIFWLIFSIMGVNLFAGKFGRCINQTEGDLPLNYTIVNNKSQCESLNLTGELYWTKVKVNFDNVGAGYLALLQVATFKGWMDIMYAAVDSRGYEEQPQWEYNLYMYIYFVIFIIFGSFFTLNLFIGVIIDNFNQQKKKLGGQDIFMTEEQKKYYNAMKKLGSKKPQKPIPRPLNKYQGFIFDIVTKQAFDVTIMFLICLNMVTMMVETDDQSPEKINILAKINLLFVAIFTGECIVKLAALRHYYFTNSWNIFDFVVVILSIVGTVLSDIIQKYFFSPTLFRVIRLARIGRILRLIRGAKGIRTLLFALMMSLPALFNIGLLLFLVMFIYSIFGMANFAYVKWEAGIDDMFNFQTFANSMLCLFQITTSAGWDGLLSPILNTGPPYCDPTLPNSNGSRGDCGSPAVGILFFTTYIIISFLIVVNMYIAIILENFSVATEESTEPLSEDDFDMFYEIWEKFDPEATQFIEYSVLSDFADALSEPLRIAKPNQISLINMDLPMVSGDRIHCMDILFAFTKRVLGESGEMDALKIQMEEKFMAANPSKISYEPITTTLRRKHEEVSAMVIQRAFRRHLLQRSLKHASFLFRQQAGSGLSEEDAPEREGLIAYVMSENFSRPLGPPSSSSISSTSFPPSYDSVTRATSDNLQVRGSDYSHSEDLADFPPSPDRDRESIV

Voltage-gated inwardly rectifying potassium channel KCNH2, sequence (Q12809 whole entry): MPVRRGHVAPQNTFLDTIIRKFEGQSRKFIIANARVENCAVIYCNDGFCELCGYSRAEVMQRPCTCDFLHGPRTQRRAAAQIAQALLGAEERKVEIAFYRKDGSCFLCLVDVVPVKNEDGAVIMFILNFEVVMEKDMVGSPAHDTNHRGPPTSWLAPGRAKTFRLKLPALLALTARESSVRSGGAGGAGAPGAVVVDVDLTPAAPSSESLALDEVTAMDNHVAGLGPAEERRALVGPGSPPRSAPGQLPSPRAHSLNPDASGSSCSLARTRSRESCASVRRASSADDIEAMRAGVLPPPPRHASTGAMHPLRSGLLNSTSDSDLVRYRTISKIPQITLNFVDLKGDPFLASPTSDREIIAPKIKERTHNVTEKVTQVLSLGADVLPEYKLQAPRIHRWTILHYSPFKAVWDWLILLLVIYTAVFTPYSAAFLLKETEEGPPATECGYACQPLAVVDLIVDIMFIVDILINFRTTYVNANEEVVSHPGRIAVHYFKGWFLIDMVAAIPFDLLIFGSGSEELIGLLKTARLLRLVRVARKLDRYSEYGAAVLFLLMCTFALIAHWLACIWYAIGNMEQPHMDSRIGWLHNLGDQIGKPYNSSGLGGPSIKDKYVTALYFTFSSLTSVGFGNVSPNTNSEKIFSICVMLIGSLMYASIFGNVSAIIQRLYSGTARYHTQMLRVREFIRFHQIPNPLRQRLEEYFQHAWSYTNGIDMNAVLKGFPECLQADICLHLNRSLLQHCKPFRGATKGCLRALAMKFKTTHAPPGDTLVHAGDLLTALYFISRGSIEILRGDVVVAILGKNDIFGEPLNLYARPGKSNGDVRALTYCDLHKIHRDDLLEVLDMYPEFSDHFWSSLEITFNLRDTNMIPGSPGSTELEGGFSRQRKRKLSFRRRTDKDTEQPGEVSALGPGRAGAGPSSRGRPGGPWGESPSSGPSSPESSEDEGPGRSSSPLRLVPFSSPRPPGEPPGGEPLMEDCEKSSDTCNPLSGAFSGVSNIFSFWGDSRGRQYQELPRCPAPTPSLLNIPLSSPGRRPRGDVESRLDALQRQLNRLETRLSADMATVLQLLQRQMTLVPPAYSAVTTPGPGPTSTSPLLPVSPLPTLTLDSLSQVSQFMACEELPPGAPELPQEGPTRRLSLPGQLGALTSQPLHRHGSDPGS

In the case of `C=C[C@H]1CN2CC[C@H]1C[C@@H]2[C@@H](O)c1ccnc2ccc(OC)cc12` [QUINIDINE], the Activity (HEK293) is reported as 103.53% and the IC50 [1] is reported as 89.6 µM.
`CN1CCC(NCc2c(OCc3ccc(Br)cc3)ccc3ccccc23)CC1` gave a Cmax [2] of 25.4 ng/mL, a Tmax [3] of 4.8 min and a half-life [4] of 3.57 h. It also gave an AUC(0-t) at 24 h [5] of 62 ng·h/mL, a clearance [6] of 249 mL/min/kg and an MRT last at 24 h [7] of 7.21 h. The Vd [8] was 132 L/kg, the Cmax [9] was 43.8 ng/mL and the Tmax [10] was 0.17 h. It also gave a half-life [11] of 7.23 h, an AUC(0-t) at 24 h [12] of 110 ng·h/mL and an MRT last at 24 h [13] of 5.37 h. The bioavailability [14] was 17.8%, the concentration at 0.5 h [15] was 960 ng/mL and the concentration at 0.5 h [16] was 12.8 ng/mL. It also gave a concentration at 2 h [17] of 702 ng/mL, a concentration at 2 h [18] of 4.16 ng/mL and a concentration at 0.5 h [19] of 102 ng/mL. It also gave a concentration at 0.5 h [20] of 32.4 ng/mL, a concentration at 2 h [21] of 158 ng/mL and a concentration at 2 h [22] of 9.16 ng/mL. For the same molecule, the IC50 [23] was 14.9 µM.
In the case of `CN(C)CCCCNCc1c(OCc2ccc(F)cc2)ccc2ccccc12`, the “inhibition (INH)” value [24] is reported as “Not Active”.
